In patent publication US8609847B2, “Dihydroquinolinone derivatives” (Taisho Pharmaceutical Co., Ltd, priority 2009, dated 2013) one finds IC50 data, which are given here for 31 molecules.

pIC50: −log10 of the molar value.

The assay concerns the target T1, human H3 receptor (Homo sapiens, UniProt Q9Y5N1).
T1 construct: purchased Perkin Elmer ES-392-M400UA; host or cells: CHO-K1 cells (recombinant expression), membrane preparation
Briefly: H3 Receptor Binding Test. The settings on record: 50% inhibition of R(−)-α-methyl[3H]histamine (1 nM) binding; membrane preparation of human H3 receptor-expressing CHO-K1 cells. The method, then: A membrane preparation of human H3 receptor-expressing CHO-K1 cells (Perkin Elmer, ES-392-M400UA, 15 μg protein/200 μl), R(−)-α-methyl[^3H]histamine (Amersham, TRK-1017, specific activity: 1.74 TBq/mmol, 1 nM) and a test drug were reacted at room temperature for 1 hour. After completion of the reaction, the reaction mixture was subjected to suction filtration through a 0.3% polyethyleneimine-treated glass filter (GF/C). The glass filter was washed five times with 50 mM Tris-HCl washing solution (pH 7.4) containing 5 mM EDTA. After washing, the glass filter was dried and a scintillator was added thereto, followed by measurement of radioactivity on the filter using a liquid scintillation counter.
Binding of R(−)-α-methyl[^3H]histamine in the presence of 10 μM R(−)-α-methylhistamine was defined as non-specific binding, and the difference between total binding and non-specific binding of R(−)-α-methyl[^3H]histamine was defined as specific binding of R(−)-α-methyl[^3H]histamine. A fixed concentration (1 nM) of R(−)-α-methyl[^3H]histamine was reacted under the above conditions with each test drug at various concentrations to obtain an inhibition curve. The inhibition curve was used to determine the concentration (IC50) of each test drug required for 50% inhibition of R(−)-α-methyl[^3H]histamine binding.

T1 sequence (Q9Y5N1 whole entry): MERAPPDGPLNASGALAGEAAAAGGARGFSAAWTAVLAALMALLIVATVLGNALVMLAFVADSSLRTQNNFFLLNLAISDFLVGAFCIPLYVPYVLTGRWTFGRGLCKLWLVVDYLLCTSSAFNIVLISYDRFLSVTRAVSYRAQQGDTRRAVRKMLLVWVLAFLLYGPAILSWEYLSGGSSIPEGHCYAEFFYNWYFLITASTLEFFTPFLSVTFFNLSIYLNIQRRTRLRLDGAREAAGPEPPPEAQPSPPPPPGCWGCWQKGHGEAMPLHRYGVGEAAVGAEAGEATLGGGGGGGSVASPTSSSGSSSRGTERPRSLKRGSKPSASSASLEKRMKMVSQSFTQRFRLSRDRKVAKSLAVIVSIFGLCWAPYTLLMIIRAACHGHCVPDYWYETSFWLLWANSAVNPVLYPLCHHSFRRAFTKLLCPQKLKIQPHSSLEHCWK

Usually pIC50 stands for the negative decadic logarithm of the IC50, by convention in mol/L. With `C[C@@H]1CCCN1CCCOc1ccc2c(c1)CCC(=O)N2c1ccc(Cl)cn1` [Compound No. 49, 1-(5-chloropyridin-2-yl)-6-{3-[(2R)-2-methylpyrrolidin-1-yl]propoxy}-3,4-dihydroquinolin-2(1H)-one], the negative logarithm of the IC50 (pIC50) is 8.40.

With `C[C@@H]1CCCN1CCCOc1ccc2c(c1)CCC(=O)N2c1cncc(C#N)c1` [Compound No. 50, 5-[6-{3-[(2R)-2-methylpyrrolidin-1-yl]propoxy}-2-oxo-3,4-dihydroquinolin-1(2H)-yl]pyridine-3-carbonitrile], the negative logarithm of the IC50 (pIC50) was 8.24.

In the case of `C[C@@H]1CCCN1CCCOc1ccc2c(c1)CCC(=O)N2c1ncccc1C#N` [Compound No. 51, 2-[6-{3-[(2R)-2-methylpyrrolidin-1-yl]propoxy}-2-oxo-3,4-dihydroquinolin-1(2H)-yl]pyridine-3-carbonitrile], the pIC50 was 7.89.

With `C[C@@H]1CCCN1CCCOc1ccc2c(c1)CCC(=O)N2c1cncc(F)c1` [Compound No. 52, 1-(5-fluoropyridin-3-yl)-6-{3-[(2R)-2-methylpyrrolidin-1-yl]propoxy}-3,4-dihydroquinolin-2(1H)-one], the negative-log IC50 (pIC50) was 8.92.

For `C[C@@H]1CCCN1CCCOc1ccc2c(c1)CCC(=O)N2c1ccn(C)c(=O)c1` [Compound No. 54, 1-(1-methyl-2-oxo-1,2-dihydropyridin-4-yl)-6-{3-[(2R)-2-methylpyrrolidin-1-yl]propoxy}-3,4-dihydroquinolin-2(1H)-one], the pIC50 was 8.32.

For `COc1ccc2ncc(N3C(=O)CCc4cc(OCCCN5CCC[C@H]5C)ccc43)cc2c1` [Compound No. 55, 6′-methoxy-6-{3-[(2R)-2-methylpyrrolidin-1-yl]propoxy}-3,4-dihydro-2H-1,3′-biquinolin-2-one], the pIC50 is 8.27.

Regarding `C[C@@H]1CCCN1CCCOc1ccc2c(c1)CCC(=O)N2c1ccc2[nH]ccc2c1` [Compound No. 56, 1-(1H-indol-5-yl)-6-{3-[(2R)-2-methylpyrrolidin-1-yl]propoxy}-3,4-dihydroquinolin-2(1H)-one], the pIC50 was 8.89.

In the case of `C[C@@H]1CCCN1CCCOc1ccc2c(c1)CCC(=O)N2c1c[nH]c2ccccc12` [Compound No. 57, 1-(1H-indol-3-yl)-6-{3-[(2R)-2-methylpyrrolidin-1-yl]propoxy}-3,4-dihydroquinolin-2(1H)-one], the pIC50 is 9.12.

Turning to `CC(C)(C)N1CCC(Oc2ccc3c(c2)CCC(=O)N3c2cnc3ccccc3c2)CC1` [Compound No. 59, 6-[(1-tert-butylpiperidin-4-yl)oxy]-3,4-dihydro-2H-1,3′-biquinolin-2-one], the negative logarithm of the IC50 (pIC50) was 8.07.

`CC(C)(C)N1CCC(Oc2ccc3c(c2)CCC(=O)N3c2ccccc2)CC1` [Compound No. 61, 6-[(1-tert-butylpiperidin-4-yl)oxy]-1-phenyl-3,4-dihydroquinolin-2(1H)-one]: the pIC50 was 8.62.

As to `CC(C)(C)N1CCC(Oc2ccc3c(c2)CCC(=O)N3c2ccc(C#N)cc2)CC1` [Compound No. 62, 4-{6-[(1-tert-butylpiperidin-4-yl)oxy]-2-oxo-3,4-dihydroquinolin-1(2H)-yl}benzonitrile], the pIC50 is 8.31.

For the molecule `CC(C)(C)N1CCC(Oc2ccc3c(c2)CCC(=O)N3c2cccc(C#N)c2)CC1` [Compound No. 63, 3-{6-[(1-tert-butylpiperidin-4-yl)oxy]-2-oxo-3,4-dihydroquinolin-1(2H)-yl}benzonitrile], the negative logarithm of the IC50 (pIC50) was 8.21.

Turning to `CC(C)(C)N1CCC(Oc2ccc3c(c2)CCC(=O)N3c2cncc(F)c2)CC1` [Compound No. 64, 6-[(1-tert-butylpiperidin-4-yl)oxy]-1-(5-fluoropyridin-3-yl)-3,4-dihydroquinolin-2(1H)-one], the negative-log IC50 (pIC50) is 8.28.

For the molecule `COc1ccc(N2C(=O)CCc3cc(OC4CCN(C(C)(C)C)CC4)ccc32)cn1` [Compound No. 65, 6-[(1-tert-butylpiperidin-4-yl)oxy]-1-(6-methoxypyridin-3-yl)-3,4-dihydroquinolin-2(1H)-one], the pIC50 was 7.92.

As to `CC(C)(C)N1CCC(Oc2ccc3c(c2)CCC(=O)N3c2ccc(F)cc2)CC1` [Compound No. 66, 6-[(1-tert-butylpiperidin-4-yl)oxy]-1-(4-fluorophenyl)-3,4-dihydroquinolin-2(1H)-one], the negative-log IC50 (pIC50) is 8.43.

Take `COc1ccc(N2C(=O)CCc3cc(OC4CCN(C5CCC5)CC4)ccc32)cn1` [Compound No. 67, 6-[(1-cyclobutylpiperidin-4-yl)oxy]-1-(6-methoxypyridin-3-yl)-3,4-dihydroquinolin-2(1H)-one]: the pIC50 was 8.57.

In the case of `O=C1CCc2cc(OC3CCN(C4CCC4)CC3)ccc2N1c1cc(F)cc(F)c1` [Compound No. 68, 6-[(1-cyclobutylpiperidin-4-yl)oxy]-1-(3,5-difluorophenyl)-3,4-dihydroquinolin-2(1H)-one], the pIC50 is 9.14.

Regarding `O=C1CCc2cc(OC3CCN(C4CCC4)CC3)ccc2N1c1ccc(Cl)cc1` [Compound No. 70, 1-(4-chlorophenyl)-6-[(1-cyclobutylpiperidin-4-yl)oxy]-3,4-dihydroquinolin-2(1H)-one], the pIC50 was 9.12.

Take `N#Cc1cccc(N2C(=O)CCc3cc(OC4CCN(C5CCC5)CC4)ccc32)c1` [Compound No. 74, 3-{6-[(1-cyclobutylpiperidin-4-yl)oxy]-2-oxo-3,4-dihydroquinolin-1(2H)-yl}benzonitrile]: the negative logarithm of the IC50 (pIC50) was 8.89.

In the case of `CC(C)N1CCC(Oc2ccc3c(c2)CCC(=O)N3c2ccc(F)cc2)CC1` [Compound No. 75, 1-(4-fluorophenyl)-6-{[1-(propan-2-yl)piperidin-4-yl]oxy}-3,4-dihydroquinolin-2(1H)-one], the pIC50 is 8.85.

With `O=C1CCc2cc(OC3CCN(CC4CC4)CC3)ccc2N1c1ccc(F)cc1` [Compound No. 76, 6-{[1-(cyclopropylmethyl)piperidin-4-yl]oxy}-1-(4-fluorophenyl)-3,4-dihydroquinolin-2(1H)-one], the pIC50 is 8.01.

Turning to `O=C1CCc2cc(OC3CCN(C4CC4)CC3)ccc2N1c1ccc(F)cc1` [Compound No. 77, 6-[(1-cyclopropylpiperidin-4-yl)oxy]-1-(4-fluorophenyl)-3,4-dihydroquinolin-2(1H)-one], the pIC50 is 8.68.

As for `O=C1CCc2cc(OCCCN3CCCC3)ccc2N1c1ccc(F)cc1` [Compound No. 78, 1-(4-fluorophenyl)-6-[3-(pyrrolidin-1-yl)propoxy]-3,4-dihydroquinolin-2(1H)-one], the pIC50 is 7.89.

With `O=C1CCc2cc(OCCCN3CCCC3)ccc2N1c1cccc(F)c1` [Compound No. 79, 1-(3-fluorophenyl)-6-[3-(pyrrolidin-1-yl)propoxy]-3,4-dihydroquinolin-2(1H)-one], the pIC50 is 7.77.

`O=C1CCc2cc(OCCCN3CCCC3)ccc2N1c1cc(F)cc(F)c1` [Compound No. 80, 1-(3,5-difluorophenyl)-6-[3-(pyrrolidin-1-yl)propoxy]-3,4-dihydroquinolin-2(1H)-one]: the negative-log IC50 (pIC50) is 7.66.

As to `O=C1CCc2cc(OCCCN3CCCC3)ccc2N1c1ccc(F)c(F)c1` [Compound No. 81, 1-(3,4-difluorophenyl)-6-[3-(pyrrolidin-1-yl)propoxy]-3,4-dihydroquinolin-2(1H)-one], the negative logarithm of the IC50 (pIC50) was 7.74.

In the case of `O=C1CCc2cc(OCCCN3CCCCC3)ccc2N1c1ccc(F)cc1` [Compound No. 82, 1-(4-fluorophenyl)-6-[3-(piperidin-1-yl)propoxy]-3,4-dihydroquinolin-2(1H)-one], the pIC50 was 8.04.

Regarding `CCN(CC)CCCOc1ccc2c(c1)CCC(=O)N2c1ccc(F)cc1` [Compound No. 83, 6-[3-(diethylamino)propoxy]-1-(4-fluorophenyl)-3,4-dihydroquinolin-2(1H)-one], the pIC50 is 7.89.

`C[C@@H]1CC[C@@H](C)N1CCCOc1ccc2c(c1)CCC(=O)N2c1ccc(F)cc1` [Compound No. 84, 6-{3-[(2R,5R)-2,5-dimethylpyrrolidin-1-yl]propoxy}-1-(4-fluorophenyl)-3,4-dihydroquinolin-2(1H)-one]: the negative logarithm of the IC50 (pIC50) is 8.30.

`C[C@@H]1CCCN1CCCOc1cc(Cl)c2c(c1)CCC(=O)N2c1ccc(F)cc1` [Compound No. 85, 8-chloro-1-(4-fluorophenyl)-6-{3-[(2R)-2-methylpyrrolidin-1-yl]propoxy}-3,4-dihydroquinolin-2(1H)-one]: the pIC50 is 7.96.

As for `Cc1cc(OCCCN2CCC[C@H]2C)cc2c1N(c1ccc(F)cc1)C(=O)CC2` [Compound No. 86, 1-(4-fluorophenyl)-8-methyl-6-{3-[(2R)-2-methylpyrrolidin-1-yl]propoxy}-3,4-dihydroquinolin-2(1H)-one], the negative logarithm of the IC50 (pIC50) was 7.92.
